Laboratory results: patent US20110152214A1, “SILK POLYMER-BASED ADENOSINE RELEASE: THERAPEUTIC POTENTIAL FOR EPILEPSY” (TRUSTEES OF TUFTS COLLEGE, priority 2008, published 2011)
Entries after “also recorded” stand apart in the source; their conditions may differ.

What was measured:
fully kindled rats [1] = assay: Experiment 1: suppression of kindled seizures by polymer-based adenosine release; assay type: in vivo, rat
Source text: Experiment 1: Four days after surgery, the animals were stimulated unilaterally six times every second or third day with a Grass S-88 stimulator (1-ms square-wave pulses of 5 V at 50-Hz frequency for 10 s, 30-min interval between stimulations; these stimulations corresponded to about 350 μA, whereas the afterdischarge thresholds before kindling were in the range of 115 μA). Behavioral seizures were scored according to the scale of Racine (Racine, 1978). The electroencephalogram (EEG) was recorded for periods of 1 min before and 5 min after application of each stimulating pulse using a Nervus EEG monitoring system. Stimulations on each day were discontinued whenever a stage 5 seizure on that day was reached. Eventually, all animals reacted with a stage 5 seizure at the first (and then only) daily stimulation. After three stage 5 seizures elicited by the first stimulation on three subsequent kindling-days animals were considered to be fully kindled (i.e. reproducibility of stage 5 seizure activity after stimulation). […] Only animals that fulfilled these stringent kindling criteria were used for the subsequent experiments. Polymers were implanted into these fully kindled animals. Implant recipients received one test-stimulation each on day 4, 6, 10, 14, 18, and 21 after polymer implantation and were then subjected to histological analysis. […]

rat kindling model [2] = assay: Experiment 2a: kindling on days 4, 6, 8, 11 after implantation, then DPCPX test; assay type: in vivo; conditions: 1 mg/kg, i.p., 30 min prior to stimulation, day twelve
Source text: Experiment 2: Polymer implantation (see below) was combined with electrode implantation (see above) in the same surgery. Experiment 2a: Kindling was initiated four days after polymer implantation with the animals receiving 6 kindling stimulations (1-ms square-wave pulses of 5 V at 50-Hz frequency for 10 sec, 30-min interval between stimulations) each on day 4, 6, 8, and 11 after implantation; this amounted to a total of 24 stimulations. […] Twenty-four (24) hr after this drug test all animals were stimulated again once before being sacrificed for histological analysis. Experiment 2b (FIG. 3): Kindling was initiated four days after polymer implantation with the animals receiving six kindling stimulations each on days 4, 5, 6, 7, and 8, after implantation; this amounted to a total of 30 stimulations. In these incompletely kindled adenosine-implant recipients further stimulations were suspended until adenosine release from the polymers had expired (from day eighteen onwards). Kindling stimulations were resumed on days 18, 19, 20, 21, and 22 after implantation (6 stimulations/day; total of 30 additional stimulations). Afterwards the animals were sacrificed for histological analysis. […]

fully kindled rats [3] = conditions: Boison et al. 2002; Güttinger et al. 2005; Huber et al. 2001; cited from earlier work
rat kindling model [4] = assay type: in vivo
Experimental: Anesthesia was induced with 3% isoflurane, 67% N2O, 30% O2 and maintained with 1.5% isoflurane, 68.5% N2O, 30% O2, while rats (N=22) were placed in a Kopf stereotactic frame. […]
Four days after surgery, the animals were stimulated unilaterally six times every second or third day with a Grass S-88 stimulator (1-ms square-wave pulses of 5V at 50-Hz frequency for 10 sec; 30 min-interval between stimulations). Behavioral seizures were scored according to the scale of Racine (3(2) Neurosurg. 234-52 (1978)). […] The electroencephalogram (EEG) was recorded for periods of 1 min before and 5 min after application of each stimulating pulse using a Nervus EEG monitoring system. […]
Seizure scores were determined after each stimulation according to the scale of Racine (1978). […]

rat kindling model [5] = conditions: Silver et al., 1991; cited from earlier work

OC[C@H]1O[C@@H](n2cnc3c(NC4CCCC4)nc(Cl)nc32)[C@H](O)[C@@H]1O [CCPA, 2-chloro-N(6)-cyclopentyladenosine]
seizure response to test stimulation (fully kindled rats [1]; 3 mg/kg i.p., 30 min prior to test stimulation, before polymer implantation): complete seizure suppression

CCCn1c(=O)c2[nH]c(C3CCCC3)nc2n(CCC)c1=O [DPCPX, 8-cyclopentyl-1,3-dipropylxanthine]
seizure stage elicited in an ADO-polymer treated rat after DPCPX (fully kindled rats [1]; 1 mg/kg, i.p., 30 min after injection, day three): 5 | effect of DPCPX on seizure score in adenosine-releasing implant recipients (rat kindling model [2]): failed to elicit control group-like seizures; also recorded: did not increase the seizure score; also recorded: failed to increase seizure scores | seizures elicited by DPCPX paired with kindling stimulations (fully kindled rats [3]): readily elicits stage 5 seizures

Nc1ncnc2c1ncn2[C@@H]1O[C@H](CO)[C@@H](O)[C@H]1O [adenosine]
doses sufficient to suppress kindling (rat kindling model [4]; focal infrahippocampal release, from Table 3): around 400 ng adenosine/day | tolerability of high doses, gross behavioral changes (rat kindling model [4]; rat, in vivo): well tolerated

NC(=O)N1c2ccccc2C=Cc2ccccc21 [carbamazepine]
effect on kindling development / antiepileptogenesis (rat kindling model [5]): did not affect kindling development during the drug-phase
